Source: patent US20240101546A1, “HETEROARYL-ACETYLENES, PHARMACEUTICAL COMPOSITIONS THEREOF, AND THEIR THERAPEUTIC APPLICATIONS” (Eubulus Biotherapeutics Inc., priority 2020, published 2024)

Test system: hepatocellular carcinoma cell line Hub-7
Experiment: Cell proliferation assay, Hub-7 (CELL-TITER GLO)
Assay type: cell-based
Conditions: Hub-7 cells, 24 h incubation, cell viability by CELL-TITER GLO, top concentration 10 μM; read-out: EC50, Inhibition of Hub-7 Cell Proliferation
How it was run: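 Hub-7 cells, 4,000 per well, seeded overnight, then exposed 24 h to compound from 10 μM top in 3-fold serial dilution. Viability read by CELL-TITER GLO luminescence; EC50 derived and binned into potency categories.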

EC50 [nM] | SMILES
> 5000 | C#Cc1nc(C(=O)N2CCCC(O)C2)cs1 (stereo not shown) [Compound D34, (2-Ethynylthiazol-4-yl)(3-hydroxypiperidin-1-yl)methanone]
> 5000 | C#Cc1nc(C(=O)N2CCC(C(=O)OC)CC2)cs1 [Compound D35, Methyl 1-(2-ethynylthiazole-4-carbonyl)piperidine-4-carboxylate]
> 5000 | C#Cc1nc(C(=O)N2CCCC(C(=O)OC)C2)cs1 (stereo not shown) [Compound D36, Methyl 1-(2-ethynylthiazole-4-carbonyl)piperidine-3-carboxylate]
> 5000 | C#Cc1nc(C(=O)N2CCCCC2C(=O)OC)cs1 (stereo not shown) [Compound D37, Methyl 1-(2-ethynylthiazole-4-carbonyl)piperidine-2-carboxylate]
200 to 1000 | C#Cc1nc(NC(=O)CCc2ccc(-c3cccc4ncsc34)cc2)cs1 [Compound E1, 3-(4-(benzo[d]thiazol-7-yl)phenyl)-N-(2-ethynylthiazol-4-yl)propanamide]
1000 to 5000 | C#Cc1nc(NC(=O)[C@@H](N)Cc2ccccc2)cs1 [Compound E2, (S)-2-Amino-N-(2-ethynylthiazol-4-yl)-3-phenylpropanamide]
200 to 1000 | C#Cc1nc(NC(=O)[C@H](N)Cc2ccccc2)cs1 [Compound E3, (R)-2-Amino-N-(2-ethynylthiazol-4-yl)-3-phenylpropanamide]
≤ 200 | C#Cc1nc(NC(=O)CCc2ccc(-c3cccc4c3cnn4C)cc2)cs1 [Compound E4, N-(2-Ethynylthiazol-4-yl)-3-(4-(1-methyl-1H-indazol-4-yl)phenyl)propanamide]
≤ 200 | C#Cc1nc(NC(=O)[C@H](N)Cc2ccccc2C#N)cs1 [Compound E5, (R)-2-Amino-3-(2-cyanophenyl)-N-(2-ethynylthiazol-4-yl)propenamide]
200 to 1000 | C#Cc1nc(C(=O)NCCc2cccc(-c3cncs3)c2)cs1 [Compound E6, 2-Ethynyl-N-(3-(thiazol-5-yl)phenethyl)thiazole-4-carboxamide]
1000 to 5000 | C#Cc1nc(C(=O)NCCc2cccc(-c3cscn3)c2)cs1 [Compound E7, 2-Ethynyl-N-(3-(thiazol-4-yl)phenethyl)thiazole-4-carboxamide]
1000 to 5000 | C#Cc1nc(NC(=O)[C@@H](N)Cc2ccccc2C#N)cs1 [Compound E8, (S)-2-Amino-3-(2-cyanophenyl)-N-(2-ethynylthiazol-4-yl)propenamide]
200 to 1000 | C#Cc1nc(NC(=O)CCc2ccc3c(c2)OCO3)cs1 [Compound E9, 3-(Benzo[d][1,3]dioxol-5-yl)-N-(2-ethynylthiazol-4-yl)propanamide]
1000 to 5000 | C#Cc1nc(NC(=O)c2ccc3ccccc3n2)cs1 [Compound E10, N-(2-Ethynylthiazol-4-yl)quinoline-2-carboxamide]
200 to 1000 | C#Cc1nc(NC(=O)C=Cc2ccccc2)cs1 [Compound E11, N-(2-Ethynylthiazol-4-yl)cinnamamide]
1000 to 5000 | C#Cc1nc(NC(=O)c2ccccc2)cs1 [Compound E12, N-(2-Ethynylthiazol-4-yl)benzamide]

Continued, compound first:

SMILES | EC50 [nM]
C#Cc1nc(C(=O)N2CCC(c3cccc(-c4cccc5ncsc45)c3)CC2)cs1 [Compound D15, (4-(3-(Benzo[d]thiazol-7-yl)phenyl)piperidin-1-yl)(2-ethynylthiazol-4-yl)-methanone] | 200 to 1000
C#Cc1nc(C(=O)N2CCN(c3cccc(-c4cccc5ncsc45)c3)CC2)cs1 [Compound D16, (4-(3-(Benzo[d]thiazol-7-yl)phenyl)piperazin-1-yl)(2-ethynylthiazol-4-yl)-methanone] | 200 to 1000
C#Cc1nc(C(=O)N2CCN(c3ccc(-c4cccc5ncsc45)cc3)CC2)cs1 [Compound D17, (4-(4-(Benzo[d]thiazol-7-yl)phenyl)piperazin-1-yl)(2-ethynylthiazol-4-yl)-methanone] | ≤ 200
C#Cc1nc(C(=O)N2CCC(c3ccc(-c4cccc5ncsc45)cc3)CC2)cs1 [Compound D18, (4-(4-(Benzo[d]thiazol-7-yl)phenyl)piperidin-1-yl)(2-ethynylthiazol-4-yl)-methanone] | ≤ 200
C#Cc1nc(C(=O)N2CCC(c3ccc(-c4cccc5nn(C)cc45)cc3)CC2)cs1 [Compound D19, (2-Ethynylthiazol-4-yl)(4-(4-(2-methyl-2H-indazol-4-yl)phenyl)piperidin-1-yl)-methanone] | ≤ 200
C#Cc1nc(C(=O)N2CCC(c3ccc(-c4cccc5c4cnn5C)cc3)CC2)cs1 [Compound D20, (2-Ethynylthiazol-4-yl)(4-(4-(1-methyl-1H-indazol-4-yl)phenyl)piperidin-1-yl)-methanone] | ≤ 200
C#Cc1nc(C(=O)N2CCC(c3ccc(-c4cccc5[nH]ncc45)cc3)CC2)cs1 [Compound D21, (4-(4-(1H-Indazol-4-yl)phenyl)piperidin-1-yl)(2-ethynylthiazol-4-yl)methanone] | ≤ 200
C#Cc1nc(C(=O)N2CCN(c3ccc(-c4cccc5c4cnn5C)cc3)CC2)cs1 [Compound D22, (2-Ethynylthiazol-4-yl)(4-(4-(1-methyl-1H-indazol-4-yl)phenyl)piperazin-1-yl)-methanone] | ≤ 200
C#Cc1nc(C(=O)N2CCN(c3ccc(-c4cccc5nn(C)cc45)cc3)CC2)cs1 [Compound D23, (2-Ethynylthiazol-4-yl)(4-(4-(2-methyl-2H-indazol-4-yl)phenyl)piperazin-1-yl)-methanone] | ≤ 200
C#Cc1nc(C(=O)N2CCC(c3ccc(C#N)cc3)CC2)cs1 [Compound D24, 4-(1-(2-Ethynylthiazole-4-carbonyl)piperidin-4-yl)benzonitrile] | ≤ 200
C#Cc1nc(C(=O)N2CCN(c3ccc(-c4cccc5[nH]ncc45)cc3)CC2)cs1 [Compound D25, (4-(4-(1H-Indazol-4-yl)phenyl)piperazin-1-yl)(2-ethynylthiazol-4-yl)methanone] | ≤ 200
C#Cc1nc(C(=O)N2CCN(c3ccc(C#N)cc3)CC2)cs1 [Compound D26, 4-(4-(2-Ethynylthiazole-4-carbonyl)piperazin-1-yl)benzonitrile] | 200 to 1000
C#Cc1nc(C(=O)N2CCN(c3ccc([N+](=O)[O-])cc3)CC2)cs1 [Compound D27, (2-Ethynylthiazol-4-yl)(4-(4-nitrophenyl)piperazin-1-yl)methanone] | ≤ 200
C#Cc1nc(C(=O)N2CCN(c3ccccc3)CC2)cs1 [Compound D28, (2-Ethynylthiazol-4-yl)(4-phenylpiperazin-1-yl)methanone] | 200 to 1000
C#Cc1nc(C(=O)N2CCC(c3ccccc3)CC2)cs1 [Compound D29, (2-Ethynylthiazol-4-yl)(4-phenylpiperidin-1-yl)methanone] | 200 to 1000
C#Cc1nc(C(=O)N2CCc3ccccc3C2)cs1 [Compound D30, (3,4-Dihydroisoquinolin-2(1H)-yl)(2-ethynylthiazol-4-yl)methanone] | 200 to 1000
C#Cc1nc(C(=O)N2CCC(O)CC2)cs1 [Compound D31, (2-Ethynylthiazol-4-yl)(4-hydroxypiperidin-1-yl)methanone] | > 5000
C#Cc1nc(C(=O)N2CCCCC2CCO)cs1 (stereo not shown) [Compound D32, (2-Ethynylthiazol-4-yl)(2-(2-hydroxyethyl)piperidin-1-yl)methanone] | > 5000
C#Cc1nc(C(=O)N2CCCC(CO)C2)cs1 (stereo not shown) [Compound D33, (2-Ethynylthiazol-4-yl)(3-(hydroxymethyl)piperidin-1-yl)methanone] | > 5000

Test system: lung cancer cell line NCI-H82
Experiment: Cell proliferation assay, NCI-H82 (CELL-TITER GLO)
Assay type: cell-based
Conditions: Homo sapiens, NCI-H82, 72 h, NCI-H82 cells, 72 h incubation, cell viability by CELL-TITER GLO, top concentration 1 μM; read-out: EC50, Inhibition of NCl-H82 Cell Proliferation
Procedure: The activity of a compound was determined in a cell proliferation assay using the lung cancer cell line NCI-H82. Cells (1,000 cells per well) were cultured with RPMI1640 in a 384-well tissue culture plate. After incubated overnight, the compound was added at predetermined concentrations, starting with 1 μM and followed by a 3-fold serial dilution. After the cells were incubated for 72 h, cell viability was determined using a CELL-TITER GLO assay. The CELL-TITER GLO reagent (25 μL) was added to each well and the luminescence was measured by a multimode microplate reader after a brief period of shaking. EC50 values were determined for the compound. The results are summarized in Table 1, wherein A represents a value no greater than 200 nM, B represents a value greater than 200 nM but no greater than 1 μM, C represents a value greater than 1 μM but no greater than […], and D represents a value greater than 5 μM.

EC50 [nM] | SMILES
≤ 200 | C#Cc1nc(NC(=O)N[C@@H](C)c2ccc(-c3cccc4ncsc34)cc2)cs1 [Compound A25, (S)-1-(1-(4-(Benzo[d]thiazol-7-yl)phenyl)ethyl)-3-(2-ethynylthiazol-4-yl)urea]
200 to 1000 | C#Cc1nc(NC(=O)N[C@H](C)c2ccc(-c3cccc4ncsc34)cc2)cs1 [Compound A26, (R)-1-(1-(4-(Benzo[d]thiazol-7-yl)phenyl)ethyl)-3-(2-ethynylthiazol-4-yl)urea]
≤ 200 | C#Cc1nc(NC(=O)NCc2ccc(-c3ccccc3C#N)cc2)cs1 [Compound A29, 1-((2′-Cyano-[1,1′-biphenyl]-4-yl)methyl)-3-(2-ethynylthiazol-4-yl)urea]
≤ 200 | C#Cc1nc(NC(=O)NCc2ccc(N3CCCC3)cc2)cs1 [Compound A30, 1-(2-Ethynylthiazol-4-yl)-3-(4-(pyrrolidin-1-yl)benzyl)urea]
200 to 1000 | C#Cc1nc(NC(=O)NCc2ccc(N3CCCC3C(N)=O)cc2)cs1 (stereo not shown) [Compound A31, 1-(4-((3-(2-Ethynylthiazol-4-yl)ureido)methyl)phenyl)pyrrolidine-2-carboxamide]
≤ 200 | C#Cc1nc(NC(=O)NCc2ccc(N3CCC[C@H]3C#N)cc2)cs1 [Compound A32, (S)-1-(4-(2-Cyanopyrrolidin-1-yl)benzyl)-3-(2-ethynylthiazol-4-yl)urea]
≤ 200 | C#Cc1nc(NC(=O)NCc2ccc(N3CCC[C@@H]3C#N)cc2)cs1 [Compound A33, (R)-1-(4-(2-Cyanopyrrolidin-1-yl)benzyl)-3-(2-ethynylthiazol-4-yl)urea]
200 to 1000 | C#Cc1nc(NC(=O)NCC(=O)N2CC(c3ccccc3C#N)C2)cs1 [Compound A34, 1-(2-(3-(2-Cyanophenyl)azetidin-1-yl)-2-oxoethyl)-3-(2-ethynylthiazol-4-yl)urea]
